The source made the active and inactive calls. Rule as the data show it, for most assays here: actives have a measured EC50 and inactives only a lower limit.

In experiment [1] the target is T1, Replicative DNA helicase DnaB (Mycobacterium tuberculosis, UniProt P9WMR3).
T1 sequence (P9WMR3 whole entry): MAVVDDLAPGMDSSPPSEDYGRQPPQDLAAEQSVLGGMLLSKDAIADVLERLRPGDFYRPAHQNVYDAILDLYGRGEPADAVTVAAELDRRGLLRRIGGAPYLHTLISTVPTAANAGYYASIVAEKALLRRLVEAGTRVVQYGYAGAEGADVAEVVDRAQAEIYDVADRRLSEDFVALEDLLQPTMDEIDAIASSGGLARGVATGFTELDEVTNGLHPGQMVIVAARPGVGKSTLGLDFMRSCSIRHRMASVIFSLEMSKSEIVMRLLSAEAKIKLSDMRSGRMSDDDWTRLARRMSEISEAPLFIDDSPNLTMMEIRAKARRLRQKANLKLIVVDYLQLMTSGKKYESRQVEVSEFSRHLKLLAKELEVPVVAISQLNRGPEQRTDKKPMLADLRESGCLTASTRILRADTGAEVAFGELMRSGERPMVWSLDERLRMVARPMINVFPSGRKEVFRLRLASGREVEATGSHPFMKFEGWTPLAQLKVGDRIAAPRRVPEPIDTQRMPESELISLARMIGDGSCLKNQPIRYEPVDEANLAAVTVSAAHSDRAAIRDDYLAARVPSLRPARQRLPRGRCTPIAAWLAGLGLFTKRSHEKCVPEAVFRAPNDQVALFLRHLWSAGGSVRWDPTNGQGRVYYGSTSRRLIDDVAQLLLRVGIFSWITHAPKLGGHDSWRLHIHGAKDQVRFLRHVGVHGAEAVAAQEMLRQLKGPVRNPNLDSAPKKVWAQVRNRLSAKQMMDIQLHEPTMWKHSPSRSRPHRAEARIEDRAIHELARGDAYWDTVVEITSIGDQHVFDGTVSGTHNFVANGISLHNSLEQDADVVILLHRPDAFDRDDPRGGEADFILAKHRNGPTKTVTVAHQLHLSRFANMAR
The experiment in a line: DnaB intein splicing inhibitors, dose response, biochemical, cell-free fluorescence (AID 449749). In kind it is functional.

Experiment [2] concerns the target T2, Protein RecA (Mycobacterium tuberculosis, UniProt P9WHJ3).
T2 sequence (P9WHJ3 whole entry): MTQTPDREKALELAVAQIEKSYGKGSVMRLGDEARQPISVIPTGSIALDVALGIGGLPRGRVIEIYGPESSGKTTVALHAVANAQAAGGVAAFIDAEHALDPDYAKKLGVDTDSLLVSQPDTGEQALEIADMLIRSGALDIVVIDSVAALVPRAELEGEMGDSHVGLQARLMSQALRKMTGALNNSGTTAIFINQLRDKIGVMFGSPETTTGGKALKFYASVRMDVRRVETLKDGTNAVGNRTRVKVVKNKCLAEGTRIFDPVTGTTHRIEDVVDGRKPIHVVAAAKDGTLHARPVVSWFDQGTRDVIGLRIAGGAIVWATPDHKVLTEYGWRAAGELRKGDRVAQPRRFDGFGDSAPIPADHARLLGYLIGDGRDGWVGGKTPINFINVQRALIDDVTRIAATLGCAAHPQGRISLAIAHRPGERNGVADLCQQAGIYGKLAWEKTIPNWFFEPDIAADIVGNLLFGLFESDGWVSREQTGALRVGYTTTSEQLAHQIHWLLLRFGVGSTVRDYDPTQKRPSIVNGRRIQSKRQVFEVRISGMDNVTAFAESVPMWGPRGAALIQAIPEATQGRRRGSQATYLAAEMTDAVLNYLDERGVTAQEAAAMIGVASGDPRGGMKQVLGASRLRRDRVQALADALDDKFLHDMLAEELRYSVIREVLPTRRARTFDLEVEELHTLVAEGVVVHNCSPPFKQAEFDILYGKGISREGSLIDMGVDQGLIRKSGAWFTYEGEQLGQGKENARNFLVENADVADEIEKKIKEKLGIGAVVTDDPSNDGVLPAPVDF
As to the kind of experiment: Fluorescence Cell-Free Homogeneous Dose Retest to Identify Inhibitors of RecA-Intein Splicing Activity. [Related pubchem assays (depositor defined):AID2097, AID2223, AID489010, AID492950]. In kind it is functional.

The test system of experiment [3] is Streptococcus. As to the kind of experiment: GAS UMAA2166 growth inhibition – luminescence, BacTiterGlo, counter-screen for streptokinase expression inhibitor project, dose response (AID 1915).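 Also: potency for reduction of bacterial viability or growth.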 In kind it is functional, organism-based. (In general: The purpose of a counterscreen is to sort out artefacts and off-target activity.)
Experiment [4] has as its system Streptococcus sp. 'group A'. The experiment in a line: Streptococcus pyogenes SK(-)GAS viability under kanamycin – luminescence, BacTiterGlo, confirmation, counter-screen for streptokinase expression inhibitor project, dose response (AID 1900). In kind it is functional, organism-based.
The target of experiment [5] is T3, Streptokinase A (Streptococcus pyogenes serotype M1, UniProt P10520).
T3 sequence (P10520 whole entry): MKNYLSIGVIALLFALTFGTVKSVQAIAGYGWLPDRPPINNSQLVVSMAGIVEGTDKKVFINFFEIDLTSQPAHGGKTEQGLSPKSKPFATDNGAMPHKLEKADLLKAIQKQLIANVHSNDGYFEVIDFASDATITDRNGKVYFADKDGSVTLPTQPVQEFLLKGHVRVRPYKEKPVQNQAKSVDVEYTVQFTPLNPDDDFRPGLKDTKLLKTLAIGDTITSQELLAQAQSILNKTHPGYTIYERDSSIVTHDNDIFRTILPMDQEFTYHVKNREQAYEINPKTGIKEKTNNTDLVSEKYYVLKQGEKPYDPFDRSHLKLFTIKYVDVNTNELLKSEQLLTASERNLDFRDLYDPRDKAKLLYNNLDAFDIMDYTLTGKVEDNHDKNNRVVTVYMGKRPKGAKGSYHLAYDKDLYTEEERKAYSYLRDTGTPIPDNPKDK
The experiment in a line: viability-normalized secreted streptokinase activity reduction – plasminogen activation absorbance, OD405, dose response (AID 1914).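 Also: secreted streptokinase activity via plasminogen activation per viability signal from cell pellet.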 In kind it is functional, Streptococcus pyogenes M1 GAS.

Experiment [6] is described as follows: Trypanosoma cruzi growth suppression in host cells – NIH3T3 host cells, beta-gal luminescence, confirmation (AID 2044).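 Also: intracellular parasites grown in NIH/3T3 mouse fibroblasts as host cells; luminescent beta-galactosidase reporter signal from transgenic T. cruzi replicating inside host cells; inhibitors lower the luminescence signal.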 In kind it is functional, cell-based.
The nature of experiment [7]: NIH3T3 cell viability loss – ATP luminescence, mouse fibroblasts, counter-screen, dose response (AID 2010).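 Also: cells exposed to compound for about 90 hours before reading.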 The experiment is classed as functional, cell-based.

The term AC50 denotes the midpoint of the concentration-response curve, whichever way the signal moves. A word on the EC50: it is the concentration at which the effect is half-maximal. For the compound `O=C(Oc1ccc2ccccc2c1)c1ccco1`, the half-maximal activity concentration (AC50) in experiment [1] is 18.3 µM (active). In addition, in experiment [2], the 50% effective concentration (EC50) is 13.9 µM (active).

Consider `CC(=O)N(c1ccccc1)C(C)c1nc(C#N)c(C#N)nc1C` (stereo unspecified), for which the half-maximal activity concentration (AC50) in experiment [1] is 24.5 µM (active). The EC50 in experiment [2] was 4.35 µM (active).

In the case of `CO/C(O)=C1/C(C)=NC(=S)NC1c1ccc(OC(=O)c2ccco2)cc1` (stereo unspecified), the AC50 in experiment [1] was 33.1 µM (active). For the same compound, the EC50 in experiment [2] is 14.4 µM (active).

As to `COC(=O)CN1C(=O)C2(C(C#N)=C(N)Oc3c2c(C)nn3-c2ccccc2)c2ccccc21` (stereo unspecified), in experiment [1], the half-maximal activity concentration (AC50) was 7.38 µM (active). Further, the concentration giving a half-maximal response (EC50) in experiment [2] was 3.38 µM (active).

For `COc1ccc(/C(=N/OC(C)=O)c2nccc3cc(OC)c(OC)cc23)cc1OC`, the AC50 in experiment [1] was > 380 µM (inactive). In addition, the concentration giving a half-maximal response (EC50) in experiment [2] was 36.3 µM (active).

`CC(=O)Oc1ccc2c(=O)oc(-c3ccccc3C)nc2c1`: in experiment [1], the AC50 is > 380 µM (inactive). For the same compound, the EC50 in experiment [2] was 37.8 µM (active).

As for `COC(=O)Cc1n[nH]c2c1C1(CCSCC1)C(C#N)=C(N)O2`, the half-maximal activity concentration (AC50) in experiment [1] is 10.8 µM (active). The concentration giving a half-maximal response (EC50) in experiment [2] was 1.99 µM (active).

Turning to `FC(F)(F)c1cccc(Nc2nc(N3CCCC3)nc(N3CCCC3)n2)c1`, the results for the EC50 in experiment [3], in experiment [4] and in experiment [5] were 9.85 µM (active), 4.06 µM (active) and 17.5 µM (inconclusive), respectively.

Take `CCOCC(=O)NCc1ccc2c(c1)cc(C)n2C`: the AC50 in experiment [1] is > 380 µM (inactive). Further, the EC50 in experiment [2] is 23.6 µM (active).

For the compound `Cc1cc(C)cc(S(=O)(=O)c2cnc3ccccc3n2)c1`, the AC50 in experiment [1] is 20.2 µM (active). Moreover, in experiment [2], the 50% effective concentration (EC50) was 4.26 µM (active).

`Oc1cccc(/C=N/c2cccc3ccccc23)c1O`: in experiment [1], the AC50 is 3.04 µM (active). Also, in experiment [2], the EC50 is 10.1 µM (active).

For `Cc1cc(Br)c(OCc2ccc(C(=O)N/N=C3\CC4CC=CC34)cc2)c(Br)c1` (stereo unspecified), the EC50 in experiment [3] was 44.5 µM (active); in experiment [4] it was 4.08 µM (active); in experiment [5], > 150 µM (not active).

In the case of `Cc1ccc(CNC(=O)c2ccc(N(C)S(=O)(=O)c3ccccc3)cc2)cc1`, the concentration at half-maximal activity (AC50) in experiment [1] was 53.4 µM (active). For the same compound, the EC50 in experiment [2] is > 380 µM (inactive).

`C/C(=N\NC(=O)c1ccc(Cl)c(Cl)c1)c1ccc(Br)s1`: the 50% effective concentration (EC50) in experiment [3] is 14.7 µM (active); in experiment [4], 2.12 µM (active); in experiment [6] it was 0.597 µM (active); in experiment [7], 8.11 µM (active); in experiment [5], > 150 µM (not active).

Regarding `CCCc1[nH][nH]c(=O)c1C(c1ccccc1)C(C#N)C#N` (stereo unspecified), the AC50 in experiment [1] was 8.91 µM (active). The EC50 in experiment [2] is 4.19 µM (active).

Consider `C/C(=N\NC(=O)Cc1cc(O)[nH]n1)c1cccc([N+](=O)[O-])c1`, for which the half-maximal activity concentration (AC50) in experiment [1] is 2.73 µM (active). For the same compound, the EC50 in experiment [2] is 1.31 µM (active).

For the compound `CC(=O)Oc1ccc(/C=N/NS(=O)(=O)c2ccccc2)cc1`, the EC50 in experiment [3], in experiment [4] and in experiment [5] was > 150 µM (not active) each time.

On to `CCCCCCCCCCC(=O)NNC(=O)c1c(O)c2ccccc2n(CC)c1=O`, for which the EC50 in experiment [3] is 4.38 µM (active); in experiment [4] it was 0.337 µM (active); in experiment [5] it was > 150 µM (not active).

For the compound `CC1=NNC(=O)C1C(c1ccccc1)C1C(=O)NN=C1C` (stereo unspecified), the AC50 in experiment [1] is 0.383 µM (active). Further, the EC50 in experiment [2] was 0.194 µM (active).

For `COC(=O)Cc1cc(=O)n(-c2ccccc2)[nH]1`, the AC50 in experiment [1] was 17.6 µM (active). Moreover, the EC50 in experiment [2] was 14 µM (active).

`COc1ccccc1Oc1cc(C#N)c(C#N)cc1-n1nnc2ccccc21`: in experiment [1], the AC50 is 20.2 µM (active). Besides, in experiment [2], the EC50 is 3.77 µM (active).

For `COc1ccc(C(=O)/C(=C/c2cccs2)c2nc3ccccc3o2)cc1`, the AC50 in experiment [1] is > 380 µM (inactive). The EC50 in experiment [2] was > 380 µM (inactive).

`COc1ccc(N2CCN(C(=O)c3ccc(Oc4ccc(C(F)(F)F)cn4)cc3)CC2)cc1`: the AC50 in experiment [1] is 121 µM (active). In addition, in experiment [2], the EC50 was > 380 µM (inactive).

For the compound `CC(=N)/C(C#N)=C(/O)CSc1nc2cc(Cl)ccc2c(=O)n1Cc1ccco1`, the EC50 in experiment [3] is 16.2 µM (active); in experiment [4], 11.8 µM (active); in experiment [6], 3.43 µM (active); in experiment [7], > 60 µM (inconclusive); in experiment [5], > 150 µM (not active).

In the case of `CC(C)(C)c1ccccc1OCCCCCn1ccnc1`, the EC50 in experiment [3] was > 150 µM (not active); in experiment [4] it was 19.1 µM (active); in experiment [6], 1.32 µM (active); in experiment [7] it was > 60 µM (not active); in experiment [5] it was > 150 µM (not active).

Take `CCOC(=O)c1cnc(-n2nc(C)cc2C)nc1N(CC)CC`: the EC50 is > 150 µM (not active) in experiment [3], 25.3 µM (active) in experiment [4] and > 150 µM (not active) in experiment [5].

In the case of `Cc1ccsc1C(=O)N(c1nc2ccccc2s1)c1c(C)cccc1C`, the EC50 in experiment [3] was > 150 µM (not active); in experiment [4] it was 16.7 µM (active); in experiment [5] it was 7.09 µM (inconclusive).

On to `CCOc1ccc2c(c1)c1nnc(SCC(=O)N3CCC(C)CC3)nc1n2C`, for which the EC50 in experiment [3] is > 150 µM (not active); in experiment [4] it was 24.2 µM (active); in experiment [5], > 150 µM (not active).

As for `O=C(COc1cccc(Cl)c1)Nc1ccccc1N1CCCCC1`, the EC50 in experiment [3] is > 150 µM (not active); in experiment [4], 21.1 µM (active); in experiment [5], 11.1 µM (active).

For the compound `Cc1nc2c(C)cccn2c(=O)c1NC(=O)c1ccc2c(c1)OCO2`, the EC50 in experiment [3], in experiment [4] and in experiment [5] was > 150 µM (not active) throughout.

Take `O=C(NC(=S)Nc1ccc(Cl)c(C(=O)O)c1)c1cccc(COc2ccccc2)c1`: the concentration giving a half-maximal response (EC50) is > 150 µM (not active) in experiment [3], 13 µM (active) in experiment [4] and > 150 µM (not active) in experiment [5].

(Values after ChEMBL document CHEMBL1201862, “PubChem BioAssay data set” (2004).)
